Article PMC5638823, “Structural insights into the competitive inhibition of the ATP-gated P2X receptor channel” (Nature Communications, 2017)

Target: T1, chicken P2X7 receptor (ckP2X7 WT) (Gallus gallus, UniProt A0A8V1A1T0)
T1 construct: gene P2RX7; ckP2X7 WT (NCBI XP_001235163), expressed in HEK-293 cells
Type: cell-based

T1 sequence (A0A8V1A1T0 entry or part of it): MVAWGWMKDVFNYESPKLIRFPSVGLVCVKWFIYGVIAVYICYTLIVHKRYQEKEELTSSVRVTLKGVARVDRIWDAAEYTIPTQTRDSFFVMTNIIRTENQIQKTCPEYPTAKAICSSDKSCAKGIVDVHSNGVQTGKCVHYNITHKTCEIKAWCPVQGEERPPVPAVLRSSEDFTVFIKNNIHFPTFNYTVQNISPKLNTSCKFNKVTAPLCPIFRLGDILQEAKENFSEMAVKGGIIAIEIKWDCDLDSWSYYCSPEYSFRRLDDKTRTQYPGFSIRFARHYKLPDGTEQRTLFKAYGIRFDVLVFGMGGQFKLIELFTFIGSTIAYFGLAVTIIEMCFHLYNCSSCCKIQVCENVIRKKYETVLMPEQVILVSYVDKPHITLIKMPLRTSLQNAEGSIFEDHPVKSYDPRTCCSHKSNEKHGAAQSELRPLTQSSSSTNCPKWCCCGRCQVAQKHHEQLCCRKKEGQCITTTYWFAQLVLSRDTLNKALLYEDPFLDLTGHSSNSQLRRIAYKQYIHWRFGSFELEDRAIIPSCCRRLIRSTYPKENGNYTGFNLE

## Nc1ncnc2c1ncn2[C@@H]1O[C@H](COP(=O)(O)OP(=O)(O)OP(=O)(O)O)[C@@H](O)[C@H]1O [ATP]
  whole-cell patch clamp, ATP-evoked currents in transfected HEK-293 cells: ATP activated biphasic currents and TNP-ATP blocked ATP-dependent currents
